Laboratory results: ChEMBL document CHEMBL1629695, “A novel polymyxin derivative that lacks the fatty acid tail and carries only three positive charges has strong synergism with agents excluded by the intact outer membrane” (Antimicrob Agents Chemother, 2010)
Bridge positions count the residues as written; N and C are the ends. Square brackets hold non-standard residues; d marks the D form. Peptide text beside a SMILES is read from it. * marks the point of attachment. Octanoyl = CCCCCCCC(=O)*; Dab = NCC[C@H](N)C(=O)O; Abu = CC[C@H](N)C(=O)O

Tests used:
[1] = tested on: Escherichia coli; assay: Antimicrobial activity against Escherichia coli IH3080 assessed as zone of inhibition at 10 ug after 18 hrs by disk diffusion method; type: functional
[2] = tested on: Escherichia coli; assay: Antimicrobial activity against Escherichia coli IH3080 assessed as zone of inhibition at 10 ug after 18 hrs by disk diffusion method in presence of 1 ug/ml rifampin; type: functional
[3] = tested on: Acinetobacter baumannii; assay: Antimicrobial activity against Acinetobacter baumannii ATCC 19606 assessed as zone of inhibition at 10 ug after 18 hrs by disk diffusion method; type: functional
[4] = tested on: Acinetobacter baumannii; assay: Antimicrobial activity against Acinetobacter baumannii ATCC 19606 assessed as zone of inhibition at 10 ug after 18 hrs by disk diffusion method in presence of 1 ug/ml rifampin; type: functional
[5] = tested on: Pseudomonas aeruginosa; assay: Antimicrobial activity against Pseudomonas aeruginosa ATCC 27853 assessed as zone of inhibition at 10 ug after 18 hrs by disk diffusion method; type: functional
[6] = tested on: Pseudomonas aeruginosa; assay: Antimicrobial activity against Pseudomonas aeruginosa ATCC 27853 assessed as zone of inhibition at 10 ug after 18 hrs by disk diffusion method in presence of 1 ug/ml rifampin; type: functional
[7] = Drug level in Sprague-Dawley rat urine at 1 mg/kg, iv; type: ADME, organism-based; parameters: dose 1 mg/kg, route intravenous; conditions: Sprague-Dawley, urine, read-out: Drug uptake
[8] = tested on: Escherichia coli; assay: Antimicrobial activity against Escherichia coli ATCC 25922 by Etest method in presence of 4 ug/ml NAB741; type: functional
[9] = tested on: Escherichia coli; assay: Antimicrobial activity against Escherichia coli IH3080 by Etest method in presence of 4 ug/ml NAB741; type: functional
[10] = tested on: Klebsiella pneumoniae; assay: Antimicrobial activity against Klebsiella pneumoniae ATCC 13883 by Etest method in presence of 4 ug/ml NAB741; type: functional
[11] = tested on: Enterobacter cloacae; assay: Antimicrobial activity against Enterobacter cloacae ATCC 23355 by Etest method in presence of 4 ug/ml NAB741; type: functional
[12] = tested on: Acinetobacter baumannii; assay: Antimicrobial activity against Acinetobacter baumannii ATCC 19606 by Etest method in presence of 4 ug/ml NAB741; type: functional
[13] = tested on: Escherichia coli; assay: Ratio of MIC for Escherichia coli ATCC 25922 to MIC for Escherichia coli ATCC 25922 in presence of 4 ug/ml of NAB741; type: functional
[14] = tested on: Escherichia coli; assay: Ratio of MIC for Escherichia coli IH3080 to MIC for Escherichia coli IH3080 in presence of 4 ug/ml of NAB741; type: functional
[15] = tested on: Klebsiella pneumoniae; assay: Ratio of MIC for Klebsiella pneumoniae ATCC 13883 to MIC for Klebsiella pneumoniae ATCC 13883 in presence of 4 ug/ml of NAB741; type: functional
[16] = tested on: Enterobacter cloacae; assay: Ratio of MIC for Enterobacter cloacae ATCC 23355 to MIC for Enterobacter cloacae ATCC 23355 in presence of 4 ug/ml of NAB741; type: functional
[17] = tested on: Acinetobacter baumannii; assay: Ratio of MIC for Acinetobacter baumannii ATCC 19606 to MIC for Acinetobacter baumannii ATCC 19606 in presence of 4 ug/ml of NAB741; type: functional

For `CC(C)C[C@@H]1NC(=O)[C@@H](Cc2ccccc2)NC(=O)[C@H](CCN)NC(=O)[C@@H](NC(=O)[C@H](CCN)NC(=O)[C@@H](N)[C@@H](C)O)CCNC(=O)[C@H]([C@@H](C)O)NC(=O)[C@H](CCN)NC(=O)[C@H](CCN)NC1=O` [POLYMYXIN B NONAPEPTIDE] (H-T[Dab][Dab][Dab][dF]L[Dab][Dab]T; lactam 3-C), the “inhibition zone (IZ)” value [1] was 3 mm2, the “inhibition zone (IZ)” value [2] was 143 mm2 and the “inhibition zone (IZ)” value [3] was 3 mm2. The “inhibition zone (IZ)” value [4] was 155 mm2, the “inhibition zone (IZ)” value [5] was 144 mm2 and the “inhibition zone (IZ)” value [6] was 169 mm2.

In the case of `CCCCCCCC(=O)N[C@H](C(=O)N[C@H](CO)C(=O)N[C@H]1CCNC(=O)[C@H]([C@@H](C)O)NC(=O)[C@H](CCN)NC(=O)[C@H](CCN)NC(=O)[C@H](CC(C)C)NC(=O)[C@@H](Cc2ccccc2)NC(=O)[C@H](CCN)NC1=O)[C@@H](C)O` (Octanoyl-T[dS][Dab][Dab][dF]L[Dab][Dab]T; lactam 3-C), the dose excreted [7] is reported as 19.4%.

With `CC(=O)N[C@H](C(=O)N[C@H](CC(N)=O)C(=O)N[C@H]1CCNC(=O)[C@H]([C@@H](C)O)NC(=O)[C@H](CCN)NC(=O)[C@H](CCN)NC(=O)[C@H](CC(C)C)NC(=O)[C@@H](Cc2ccccc2)NC(=O)[C@H](CCN)NC1=O)[C@@H](C)O` the “inhibition zone (IZ)” value [1] was 3 mm2, the “inhibition zone (IZ)” value [2] was 110 mm2 and the “inhibition zone (IZ)” value [3] was 3 mm2. For the same compound, the “inhibition zone (IZ)” value [4] was 154 mm2, the “inhibition zone (IZ)” value [5] was 3 mm2 and the “inhibition zone (IZ)” value [6] was 3 mm2.

With `C/C(=C\C(=O)OCCCCCCCCC(=O)O)C[C@@H]1OC[C@H](C[C@@H]2O[C@H]2[C@@H](C)[C@H](C)O)[C@@H](O)[C@H]1O` [MUPIROCIN] the MIC [8] was 0.75 µg/mL, the MIC [9] was 1 µg/mL and the MIC [10] was 6 µg/mL. For the same compound, the MIC [11] was 0.25 µg/mL, the MIC [12] was 512 µg/mL and the Ratio [13] was 64. For the same compound, the Ratio [14] was 24, the Ratio [15] was 8 and the Ratio [16] was 50. It also gave a Ratio [17] of less than 2.

Work on `CC[C@H]1OC(=O)[C@H](C)[C@@H](O[C@H]2C[C@@](C)(OC)[C@@H](O)[C@H](C)O2)[C@H](C)[C@@H](O[C@@H]2O[C@H](C)C[C@H](N(C)C)[C@H]2O)[C@](C)(O)C[C@@H](C)CN(C)[C@H](C)[C@@H](O)[C@]1(C)O` [AZITHROMYCIN] yielded an MIC [8] of 0.125 µg/mL, an MIC [9] of 0.094 µg/mL and an MIC [10] of 0.125 µg/mL. The MIC [11] was 0.25 µg/mL, the MIC [12] was 1.5 µg/mL and the Ratio [13] was 16. For the same compound, the Ratio [14] was 8, the Ratio [15] was 11 and the Ratio [16] was 16. The Ratio [17] was 21.

For `CC(=O)N[C@H](C(=O)NCCCC(=O)N[C@H]1CCNC(=O)[C@H]([C@@H](C)O)NC(=O)[C@H](CCN)NC(=O)[C@H](CCN)NC(=O)[C@H](CC(C)C)NC(=O)[C@@H](Cc2ccccc2)NC(=O)[C@H](CCN)NC1=O)[C@@H](C)O`, the “inhibition zone (IZ)” value [1] was 3 mm2, the “inhibition zone (IZ)” value [2] was 8 mm2 and the “inhibition zone (IZ)” value [3] was 3 mm2. For the same compound, the “inhibition zone (IZ)” value [4] was 9 mm2, the “inhibition zone (IZ)” value [5] was 3 mm2 and the “inhibition zone (IZ)” value [6] was 3 mm2.

With `CCCCCCCC(=O)N[C@H](C(=O)N[C@@H](CC)C(=O)N[C@H]1CCNC(=O)[C@H]([C@@H](C)O)NC(=O)[C@H](CCN)NC(=O)[C@H](CCN)NC(=O)[C@H](CC(C)C)NC(=O)[C@@H](Cc2ccccc2)NC(=O)[C@H](CCN)NC1=O)[C@@H](C)O` (Octanoyl-T[Abu][Dab][Dab][dF]L[Dab][Dab]T; lactam 3-C) the “inhibition zone (IZ)” value [1] was 32 mm2, the “inhibition zone (IZ)” value [2] was 206 mm2 and the “inhibition zone (IZ)” value [3] was 3 mm2. The “inhibition zone (IZ)” value [4] was 252 mm2, the “inhibition zone (IZ)” value [5] was 2 mm2 and the “inhibition zone (IZ)” value [6] was 55 mm2.
